Assay results as given in PubChem BioAssay (NCI).
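Where inhibition never reached the appropriate level, the endpoint shown equals the highest concentration tested. Otherwise, values were interpolated linearly from a five-concentration, 48-hour dose response in 96-well plates. Here, GI50 denotes the concentration required for 50% inhibition of growth. The concentration for full growth arrest is given as TGI.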

Each compound was assayed on IGROV1 ovarian (assay: NCI anticancer screen, dose series, 48 h).

Compound | GI50 | TGI
[CH3][Sn]1([CH3])[O]CC(COc2cc(Cl)c(Cl)cc2Cl)[O]1 (stereo not given) | 70.3 µM | > 100 µM
CCc1cc(Cc2ccc(C)c(NC(=O)C(=O)C3C(=O)NC(=O)NC3=O)c2CC)cc(C)c1NC(=O)C(=O)C1C(=O)NC(=O)NC1=O | – | > 100 µM
CC(=O)OC(=O)O/C=C\CCl | – | > 100 µM
CC(=O)c1c2c(cc3c1CC1(C3)Cc3cc4c(c(C(=O)O)c3C1)CCC4)CCC2 (stereo not given) | – | > 100 µM
Cc1ccc(/C=N/NS(=O)(=O)c2ccccc2)c(C)c1 | – | > 100 µM
C#CCOCn1cnc2ncnc(N)c21 | – | > 100 µM
Cc1noc(/N=C2\C=C(Nc3onc(C)c3C)C(=O)c3ccccc32)c1C | – | > 100 µM

The compounds below were run on SK-MEL-28 melanoma (assay: NCI anticancer screen, dose series, 48 h).

Compound | TGI | GI50
O=S1(=O)c2ccccc2N=C(c2ccccc2Cl)CC1c1ccc(F)cc1 (stereo not given) | 32.7 µM | –
CCN(CC)Cc1cc(Nc2c3ccccc3nc3cc(Cl)ccc23)ccc1O | 3.2 µM | 1.79 µM
CC1=CC(=O)NP(=O)(C23CC4CC(CC(C4)C2)C3)N1 (stereo not given) | > 100 µM | –
O=c1[nH]cc(C(F)(C(F)(F)F)C(F)(F)F)c(=O)[nH]1 | > 100 µM | –
COc1ccc2c(c1)c1c3n2CCNN=C3CCC1 | > 100 µM | –
CC(C)N1C(C)[C@@H](c2ccccc2)O[P@]1(=O)CC1=CCCCC1 (stereo not given in full) | > 100 µM | –
O=C(O)CCc1nc(-c2ccccc2-n2cccc2)no1 | > 100 µM | –
COC(=O)C(=O)C(C(=O)C(=O)Nc1cc(Cl)c(Cl)cc1Cl)c1nc2ccc([N+](=O)[O-])cc2[nH]c1=O (stereo not given) | > 100 µM | –
COc1ccc(NC(=O)C2C(=O)N(c3ccc(OC)cc3)C(=O)/C2=N\NC(N)=O)cc1 (stereo not given) | > 100 µM | –
S=c1c2ccccc2c(=S)n2n1CC=CC2 | > 100 µM | –
CCCCNC1=C(C(=O)OCC)/C(=N/NC(=O)c2ccccc2O)CO1 | > 100 µM | –
N#CC(C(=O)CCCC(=O)Nc1ccc(Cl)cc1Cl)c1ccc(Cl)cc1 (stereo not given) | > 100 µM | –
O=CCCCC(Sc1ccccc1)Sc1ccccc1 | 32 µM | –
COc1ccc(C)cc1C1CCC(=O)O1 (stereo not given) | > 100 µM | –
Cc1ccc2nc(NC(=O)C(=O)CC(=O)c3cccc4ccccc34)sc2c1 | > 100 µM | –
O=C1CCC(=O)c2sccc2N1 | > 100 µM | –
CCCCCCCCCCCCCCCCCC(=O)NCC(COP(=O)(O)O)OCC (stereo not given) | > 100 µM | –
CCCCCCCCCCSC(=N)N | 14.1 µM | 3.67 µM
Cn1nc(-c2ccccc2)c(C(=O)/C=C/c2ccc(Cl)cc2)c(N2CCCC2)c1=O | 13.8 µM | –
Cc1cc2nc(-c3c(F)cccc3Cl)n(Cc3c(F)cccc3Cl)c2cc1C | 55.2 µM | 24.8 µM
O=C1C=Cc2ncccc2C1=O | 48.1 µM | –
C/C(CC(=O)Nc1cccc([N+](=O)[O-])c1)=N\NC(=O)CC#N | > 100 µM | –
[CH3][Sn]1([CH3])[O]CC(COc2cc(Cl)c(Cl)cc2Cl)[O]1 (stereo not given) | > 100 µM | > 100 µM
O=C(/C=C/c1ccccc1)CCC1C(=O)NC(=S)NC1=O | > 100 µM | –
CCc1cc(Cc2ccc(C)c(NC(=O)C(=O)C3C(=O)NC(=O)NC3=O)c2CC)cc(C)c1NC(=O)C(=O)C1C(=O)NC(=O)NC1=O | > 100 µM | –
CC(=O)OC(=O)O/C=C\CCl | > 100 µM | –
CC(=O)c1c2c(cc3c1CC1(C3)Cc3cc4c(c(C(=O)O)c3C1)CCC4)CCC2 (stereo not given) | > 100 µM | –
Cc1ccc(/C=N/NS(=O)(=O)c2ccccc2)c(C)c1 | > 100 µM | –
C#CCOCn1cnc2ncnc(N)c21 | > 100 µM | –
Cc1noc(/N=C2\C=C(Nc3onc(C)c3C)C(=O)c3ccccc32)c1C | > 100 µM | –

The compounds below were run on SW-620 colon (assay: NCI anticancer screen, dose series, 48 h).

Compound | TGI | GI50
O=S1(=O)c2ccccc2N=C(c2ccccc2Cl)CC1c1ccc(F)cc1 (stereo not given) | 31.5 µM | –
CCN(CC)Cc1cc(Nc2c3ccccc3nc3cc(Cl)ccc23)ccc1O | 3.63 µM | 1.18 µM
CC1=CC(=O)NP(=O)(C23CC4CC(CC(C4)C2)C3)N1 (stereo not given) | > 100 µM | –
O=c1[nH]cc(C(F)(C(F)(F)F)C(F)(F)F)c(=O)[nH]1 | > 100 µM | –
COc1ccc2c(c1)c1c3n2CCNN=C3CCC1 | > 100 µM | –
CC(=O)[C-](C(C)=O)c1ccccc1.CC(=O)[C-](C(C)=O)c1ccccc1.CC(=O)[C-](C(C)=O)c1ccccc1.[Cl-].[Zr+4] | > 100 µM | > 100 µM
CC(C)N1C(C)[C@@H](c2ccccc2)O[P@]1(=O)CC1=CCCCC1 (stereo not given in full) | > 100 µM | –
O=C(O)CCc1nc(-c2ccccc2-n2cccc2)no1 | > 100 µM | –
COC(=O)C(=O)C(C(=O)C(=O)Nc1cc(Cl)c(Cl)cc1Cl)c1nc2ccc([N+](=O)[O-])cc2[nH]c1=O (stereo not given) | > 100 µM | –
COc1ccc(NC(=O)C2C(=O)N(c3ccc(OC)cc3)C(=O)/C2=N\NC(N)=O)cc1 (stereo not given) | > 100 µM | –
C/C(=N\NS(=O)(=O)c1ccc([N+](=O)[O-])cc1)c1ccc[n+]([O-])n1 | 7.99 µM | –
S=c1c2ccccc2c(=S)n2n1CC=CC2 | > 100 µM | –
CC(C)(C)Sc1nnc(SC(C)(C)C)c2c(=O)[nH]nc(SC(C)(C)C)c12 | 20.8 µM | –
CCCCNC1=C(C(=O)OCC)/C(=N/NC(=O)c2ccccc2O)CO1 | > 100 µM | –
N#CC(C(=O)CCCC(=O)Nc1ccc(Cl)cc1Cl)c1ccc(Cl)cc1 (stereo not given) | > 100 µM | –
O=CCCCC(Sc1ccccc1)Sc1ccccc1 | 23.6 µM | –
COc1ccc(C)cc1C1CCC(=O)O1 (stereo not given) | > 100 µM | –

Compound | TGI | GI50
Cc1ccc2nc(NC(=O)C(=O)CC(=O)c3cccc4ccccc34)sc2c1 | > 100 µM | –
O=C1CCC(=O)c2sccc2N1 | > 100 µM | –
CCCCCCCCCCCCCCCCCC(=O)NCC(COP(=O)(O)O)OCC (stereo not given) | > 100 µM | –
CCCCCCCCCCSC(=N)N | 3.52 µM | 1.7 µM
Cn1nc(-c2ccccc2)c(C(=O)/C=C/c2ccc(Cl)cc2)c(N2CCCC2)c1=O | 21.9 µM | –
Cc1cc2nc(-c3c(F)cccc3Cl)n(Cc3c(F)cccc3Cl)c2cc1C | 32.4 µM | 11.8 µM
O=C1C=Cc2ncccc2C1=O | 31.1 µM | –
C/C(CC(=O)Nc1cccc([N+](=O)[O-])c1)=N\NC(=O)CC#N | > 100 µM | –
[CH3][Sn]1([CH3])[O]CC(COc2cc(Cl)c(Cl)cc2Cl)[O]1 (stereo not given) | > 100 µM | 51 µM
O=C(/C=C/c1ccccc1)CCC1C(=O)NC(=S)NC1=O | > 100 µM | –
CCc1cc(Cc2ccc(C)c(NC(=O)C(=O)C3C(=O)NC(=O)NC3=O)c2CC)cc(C)c1NC(=O)C(=O)C1C(=O)NC(=O)NC1=O | > 100 µM | –
CC(=O)OC(=O)O/C=C\CCl | > 100 µM | –
CC(=O)c1c2c(cc3c1CC1(C3)Cc3cc4c(c(C(=O)O)c3C1)CCC4)CCC2 (stereo not given) | > 100 µM | –
Cc1ccc(/C=N/NS(=O)(=O)c2ccccc2)c(C)c1 | > 100 µM | –
C#CCOCn1cnc2ncnc(N)c21 | > 100 µM | –
Cc1noc(/N=C2\C=C(Nc3onc(C)c3C)C(=O)c3ccccc32)c1C | > 100 µM | –
